Like-named read-outs stand apart in the source and are kept apart here.
Experiments:
rodent model of diabetes = test system: rodent model of diabetes; parameters: method as in PMID 20000679; settings: ref 36; cited from earlier work
GBA2 = settings: ref 15; cited from earlier work
C57BL6J mice [1] = experiment: Epididymal sperm acrosome morphology (FITC-PSA staining) after 35 days oral dosing; format: in vivo, mouse; settings: 15, 25 and 50 mg/kg oral daily
Method: (§1) Groups of six mice, each, were used for three different doses of NB-DNJ or NB-DGJ formulated in milliQ water at 50 mg/kg, 25 mg/kg and 15 mg/kg, respectively. Control groups were given an equivalent volume of water. Animals were given compound or control once daily for 35 consecutive days via oral gavage using animal feeding needles (Biomedical Needles, Popper, NY, USA). Body weight was noted every week for all treatment groups. Mice were euthanized at the end of a 35 days dosing regimen using CO2 asphyxia followed by cervical dislocation. Testes were harvested, weighed and stored in Bouin’s fixative for 48 h, then sliced into two halves, and stored in fresh Bouin’s for another 24 h. The tissue slices were then rinsed in 70% ethanol and processed and stained for histology using a standard protocol for Hematoxylin and eosin staining. Spermatids with elongated and abnormally shaped heads were counted per 20 fields and average number calculated for 6 mice/group.
For sperm retrieval, epididymis was removed from the animal and placed in Petri dish. One mL of capacitation buffer (Capacitation buffer consisted of 110 mM NaCl, 2.68 mM KCl, 0.36 mM NaH2PO4, 25 mM NaHCO3, 0.49 mM MgCl2, 2.40 mM CaCl2, 25 mM HEPES, 5.50 mM Glucose, 1 mM Pyruvic acid, pH 7.4; Tash and Bracho, 1998) at room temperature was added to the dish. Using forceps, the caput of the epididymis was held in place and the cauda sliced repeatedly with a razor blade. The spermatozoa were allowed to disperse for 15 min with gentle swirling intermittently. A 100 µL aliquot of the sperm suspension was dropped onto a standard glass microscope slide (Fisherbrand superfrost microscope slides 25 × 75 × 1.0 mm)) and smeared with side of pipette tip. The slides were air dried flat for 1 h at room temperature. The sperm smear was fixed in methanol for 2 min. The sperm smear was than stained using FITC-PSA (Fluorescein isothiocyanate Pisum Sativum Agglutinin; Vector Laboratories, Burlingame, CA) was diluted 1:7000 in PBS containing 1:10,000 DAPI dihydrochloride, FluoroPure™ grade, Invitrogen) (≥98% pure) to make the stock solution. To each slide, 100 µL of FITC-PSA was added and spread out with edge of pipette tip to cover the dried sperm smear. The slides were incubated at 37 °C for 10 min, and then washed with 5 changes of PBS for 5 min each. The slides were air-dried and mounted with 20 µL Vectashield mounting medium for fluorescence (Vector Laboratories, Burlingame, CA, USA) and observed. Slides were viewed on a Nikon IX-81 microscope under a 40× objective using FITC and DAPI filter to visualize acrosome morphology. The phase contrast images were also collected at the same magnification to compare morphological details.

C57BL6J mice [2] = experiment: Testis histology (H&E) after 35 days oral dosing; format: in vivo, mouse; settings: 15, 25 or 50 mg/kg, oral daily
Method: as §1

male CD rats = experiment: Rat mating trial (fertility); format: in vivo; settings: 15 mg/kg/day oral, 35 days; data not presented
Method: Eighteen adult male CD rats were divided into three groups of six rats each. One group of six CD rats was treated with vehicle (distilled water containing 0.9% benzyl alcohol) via oral gavage (5 mL/kg/day), and the second group (6 rats) was treated with NB-DGJ (in distilled water containing 0.9% benzyl alcohol) via oral gavage at 150 mg/kg/day (in approximately 5 mL/kg of water) daily for 35 consecutive days. The third group (6 rats) was treated with 15 mg/kg NB-DNJ in distilled water containing 0.9% benzyl alcohol) via oral gavage (in approximately 5 mL/kg of water) daily for 35 consecutive days (Figure S5).
Rats were weighed on day 0 (first day of dosing) and weekly thereafter. Dosages were adjusted based on the most recent body weight. Males were cohabited with untreated females (one male per two females) weekly at weeks 1 through 9 [38, 39]. Females were necropsied seven days after separation from males to determine the numbers of implantation sites. Individual male rats were bled from the tail vein at weeks 0, 1, 4, and 7 and serum was harvested by centrifugation. At week 11, the male rats were weighed, anesthetized, and exsanguinated. Sera were analyzed for inhibin B by ELISA (enzyme-linked immunosorbent assay), and rat follicle stimulating hormone (rFSH) and testosterone by radioimmunoassay. Testes, epididymides, ventral prostates, and seminal vesicles were excised and weighed. The left testis was homogenized, and spermatid head counts obtained.
Statistical analysis using the Student’s t-test was performed on body weights, paired testes weights, ventral prostrate weights, seminal vesicle weights, paired epididymal weights, spermatid head counts, percent motile and normal epididymal sperm. We used analysis of variance (ANOVA) for serum inhibin B, rFSH, and testosterone, since these measurements were repeated throughout the study period. The effect of NB-DNJ at 15 mg/kg/day dose in the rat model was studied following the same protocol as that for NB-DGJ.

[3] = parameters: method as in PMID 17624027; settings: male and female CD rats, oral [3H]-NB-DNJ 160 mg/kg, cited from earlier work
C57BL/6 mice = settings: cited from earlier work
human subjects = test system: human subjects; parameters: method as in PMID 17067996, PMID 10801168, PMID 7905523; settings: ref 25, 26, 27; cited from earlier work
[4] = C57BL/6 mice, daily oral 15 mg/kg

For OC[C@@H]1[C@@H](O)[C@H](O)[C@@H](O)CN1CCCCCOCC12CC3CC(CC(C3)C1)C2, the “Control of hyperglycemia (in words)” value (rodent model of diabetes) is given as “potently control hyperglycemia”.

With CCCCN1C[C@H](O)[C@@H](O)[C@H](O)[C@H]1CO [NB-DNJ, N-butyldeoxynojirimycin] the “Sperm acrosome morphology (in words)” value (C57BL6J mice [1]) was “abnormal acrosome in all spermatozoa”, the “Testis histology, spermatid heads (in words)” value (C57BL6J mice [2]) was “rounded, abnormally shaped spermatid heads” and the “Effect on fertility in mating trial (in words)” value (male CD rats) was “did not show effect on fertility by week 6”. For the same compound, the Cmax [3] was 13,800 ng/mL, the tmax [3] was 0.5 h and the t½ [3] was 4.5 h. For the same compound, the Cmax ([3]; read-out: Cmax in molar units) was roughly 63 µM, the “Time to return of fertility after cessation” value (C57BL/6 mice; C57BL/6 mice, 15 mg/kg) was “three weeks” and the “Effect on fertility (in words)” value (C57BL/6 mice; [4]) was “Reversible inhibition of fertility”. For the same compound, the “Time of daily dosing until inhibition of fertility was observed” value (C57BL/6 mice; [4]) was “three weeks”, the “Strain/species specificity of male contraceptive activity (in words)” value (C57BL/6 mice; ref 24) was “only effective as a male contraceptive in C57BL/6 and C57BL/6-related mice” and the “Effect in human subjects (sperm counts, semen parameters)” value (human subjects) was “no effect”.

Source: paper PMC6982022 (International Journal of Molecular Sciences, 2019)
